Results from patent US20250288587A1, “Methods of Treating Fibrosis” (Athira Pharma, Inc., priority 2022, published 2025).

Key:
[1] = test system: pulmonary LPS-stimulated rats; test: Cytokine expression in BALF supernatant (multiplex immunoassay), LPS-induced acute pulmonary inflammation; assay type: in vivo; conditions: for cytokines with significant changes in expression in BALF supernatant versus LPS-only animals: p<0.05, Student's T-test, any tested dose
[2] = test system: CFA-stimulated rats; test: CFA inflammatory pain model, thermal hyperalgesia (Hargreaves method); assay type: in vivo; design: key to Thermal Hyperalgesia, change in sensitivity compared to CFA alone / Thermal Hyperalgesia, significant reduction in pain behavior vs CFA alone: NS = no statistically significant change in sensitivity compared to CFA alone; + = statistically significant change in sensitivity compared to CFA alone, p < 0.05; conditions: for study days on which thermal sensitivity was reduced: PO, post-dose testing, any tested dose; for PWL (paw withdrawal latency) vs CFA+vehicle: day 7 at each dose, data not shown
Protocol: Response to peripheral inflammatory stimulus can be modeled by administering complete Freund's adjuvant (CFA), a suspension of desiccated mycobacterium in paraffin oil and mannide monooleate, by subcutaneous injection into the rat's footpad. The introduction of CFA to peripheral tissues leads to a rapid, sustained, inflammatory reaction in the treated tissue within 24 hours. Subcutaneous administration of CFA in the plantar region of the paw induces inflammatory pain behaviors that persist for at least 8 days. CFA treatment also leads to the accumulation of inflammatory cytokines in paw tissue at the site of injury, which, if unresolved, can lead to formation of fibrotic tissue. The extent of inflammatory response to CFA can be assessed by quantification of inflammatory cytokines in paw skin lysate, and inflammatory pain behaviors by mechanical allodynia (von Frey test) and thermal hyperalgesia (Hargreaves test).
In one study, Compound 2a was tested for its ability to reduce inflammatory pain behaviors in the CFA inflammation model. On study day 0, […] of CFA was administered subcutaneously in the plantar of the right hind paw. Animals were treated daily with Compound 2a in solution via oral gavage (PO) at doses of 1, 0.1, and 0.025 mg/kg. Treatment began before CFA injection on study day −1 and continued through study day 8.
Thermal hyperalgesia was measured using the Hargreaves method. A temperature ramp was applied to the right hind paw and the paw withdrawal latency (PWL) was recorded as a measure of sensitivity to thermal stimulation. […] Statistical analysis was performed using a 1-way ANOVA with Tukey post-test. A p-value below 0.05 was considered statistically significant.
In another study, Compounds 1a, 5a, and 6a were similarly tested against CFA-induced inflammatory stimulation in the right hind foot for their ability to reduce pain behaviors. This study also included quantification of inflammatory cytokine expression in paw skin lysate. Inflammatory pain stimulation with CFA injection and assessment of mechanical and thermal pain behaviors were performed as described above, with the exception that only post-dose pain behavior testing is reported.
Intraplantar CFA injection occurred at day 0. Treatment with Compounds 1a, 5a, and 6a occurred at days −2, 1, 3, and 7. At day 8, the rats were terminated and cytokine levels were measured in paw skin and plasma. Tissue from paw bone, joint, and muscle were obtained for H&E staining and analysis. Cytokine levels in test compound-treated animals were compared to CFA-stimulated animals. Analytes included interleukin 4 (IL-4), tumor necrosis factor alpha (TNF-α) and interferon gamma (IFN-γ). Statistical analysis consisted of 1-way ANOVA followed by Dunnett's multiple comparisons post-test. Mechanical allodynia and thermal hyperalgesia were tested 1 hour post-dosing on days 1, 3, and 7. PWT refers to […] paw withdrawal threshold where a higher value corresponds to a higher pain threshold. PWL refers to […] paw withdrawal latency where a higher value corresponds to a higher pain threshold.

[3] = test system: THP-1-differentiated macrophages; test: Pro-inflammatory cytokine expression in LPS-challenged THP-1-differentiated macrophages; assay type: cell-based, human; design: key to IL-6, significant reduction in culture supernatant vs LPS treatment / TNF-α, significant reduction in culture supernatant vs LPS treatment / IL-1β, significant reduction in culture supernatant vs LPS treatment: “NS” indicates a non-significant reduction in the indicated cytokine; “+” indicates a p value <0.05 in Tukey post test; “++” indicates a p value <0.01 in Tukey post test; conditions: for IL-1β, significant reduction in culture supernatant vs LPS treatment / IL-6, significant reduction in culture supernatant vs LPS treatment / TNF-α, significant reduction in culture supernatant vs LPS treatment: 20 min pre-treatment, 24 hrs LPS; for expression of IL-1β and TNF-α / expression of IL-6: at at least one tested dose
Protocol: Differentiation with PMA causes THP-1 monocyte cells to acquire functional and morphological resemblance to macrophages. LPS interacts with THP-1 differentiated macrophage through the toll-like receptor 4, triggering the inflammatory response and stimulating pro-inflammatory cytokine release and eventually leading to cellular death. Compounds were tested to determine their anti-inflammatory effects on LPS-challenged macrophage cultures. THP-1-differentiated macrophages were treated with test compounds for 20 minutes, followed by 24 hrs of LPS challenge. Culture supernatants were then collected to analyzed for the presence of pro-inflammatory cytokines: […], interleukin 6 (IL-6) and tumor necrosis factor α (TNF-α).
Cytokine quantification in cell culture supernatants was accomplished by HTRF kits to assess levels of IL-1β (Human IL-1β kit, #62HIL1BPEG, Cisbio) and IL-6 (Human IL-6 kit, 62HIL06PET, Cisbio), and by ELISA to determine the levels of TNF-α (Human TNF-α ELISA kit, KHC3011, ThermoFisher).
Data analysis was performed via 1-way ANOVA with Tukey post-test compared to LPS treatment cultures using Prism statistical software (GraphPad). Tabular data indicates significance of reduction in culture supernatants for the indicated analyte at the indicated doses.

[4] = 0.075 mg/kg IV, 24 h and 0.5 h before LPS
[5] = 0.75 mg/kg IV, 24 h and 0.5 h before LPS
[6] = 7.5 mg/kg IV, 24 h and 0.5 h before LPS

| SMILES | IFN-γ, significant change in cytokine expression in BALF supernatant [1, 4] | IL-1β, significant change in cytokine expression in BALF supernatant [1, 5] | cytokines with significant changes in expression in BALF supernatant versus LPS-only animals [1] | study days on which thermal sensitivity was reduced [2] | PWL (paw withdrawal latency) vs CFA+vehicle [2] | IL-1β, significant reduction in culture supernatant vs LPS treatment ([3]; 0.1 nM) | IL-6, significant reduction in culture supernatant vs LPS treatment ([3]; 0.1 nM) | TNF-α, significant reduction in culture supernatant vs LPS treatment ([3]; 0.1 nM) | IL-1β, significant reduction in culture supernatant vs LPS treatment ([3]; 10 nM) | IL-6, significant reduction in culture supernatant vs LPS treatment ([3]; 10 nM) | TNF-α, significant reduction in culture supernatant vs LPS treatment ([3]; 10 nM) | IL-1β, significant reduction in culture supernatant vs LPS treatment ([3]; 1000 nM) | IL-6, significant reduction in culture supernatant vs LPS treatment ([3]; 1000 nM) | TNF-α, significant reduction in culture supernatant vs LPS treatment ([3]; 1000 nM) | expression of IL-1β and TNF-α [3] | expression of IL-6 [3] | further results |
| --- | --- | --- | --- | --- | --- | --- | --- | --- | --- | --- | --- | --- | --- | --- | --- | --- | --- |
| CCC(C)CN1CC2N(C(=O)c3ccc(C(F)(F)F)cc3)CCC(=O)N2[C@@H](C)C1=O (some centres unmarked) [Compound 1a] | + (+ = Significant change in cytokine quantification, p < 0.05 by Student's T-test) | + (+ = Significant change in cytokine quantification, p < 0.05 by Student's T-test) | G-CSF, CXCL2, CXCL10, IFN-γ, and IL-1β | study days 1, 3, and 7 | statistically significant increase | ++ (“++” indicates a p value <0.01 in Tukey post test) | NS | ++ (“++” indicates a p value <0.01 in Tukey post test) | ++ (“++” indicates a p value <0.01 in Tukey post test) | ++ (“++” indicates a p value <0.01 in Tukey post test) | ++ (“++” indicates a p value <0.01 in Tukey post test) | ++ (“++” indicates a p value <0.01 in Tukey post test) | + (“+” indicates a p value <0.05 in Tukey post test) | ++ (“++” indicates a p value <0.01 in Tukey post test) | significantly reduced | significantly reduced | CXCL10, significant change in cytokine expression in BALF supernatant [1, 4]: + (+ = Significant change in cytokine quantification, p < 0.05 by Student's T-test); CXCL2, significant change in cytokine expression in BALF supernatant [1, 5]: + (+ = Significant change in cytokine quantification, p < 0.05 by Student's T-test); CXCL10, significant change in cytokine expression in BALF supernatant [1, 5]: + (+ = Significant change in cytokine quantification, p < 0.05 by Student's T-test); G-CSF, significant change in cytokine expression in BALF supernatant [1, 5]: + (+ = Significant change in cytokine quantification, p < 0.05 by Student's T-test); Thermal Hyperalgesia, significant reduction in pain behavior vs CFA alone ([2]; 8 mg/kg PO, Day 1, 1 h post-dose): NS; Thermal Hyperalgesia, significant reduction in pain behavior vs CFA alone ([2]; 8 mg/kg PO, Day 3, 1 h post-dose): NS; Thermal Hyperalgesia, significant reduction in pain behavior vs CFA alone ([2]; 8 mg/kg PO, Day 7, 1 h post-dose): + (+ = statistically significant change in sensitivity compared to CFA alone, p < 0.05); Thermal Hyperalgesia, significant reduction in pain behavior vs CFA alone ([2]; 16 mg/kg PO, Day 1, 1 h post-dose): + (+ = statistically significant change in sensitivity compared to CFA alone, p < 0.05); Thermal Hyperalgesia, significant reduction in pain behavior vs CFA alone ([2]; 16 mg/kg PO, Day 3, 1 h post-dose): + (+ = statistically significant change in sensitivity compared to CFA alone, p < 0.05); Thermal Hyperalgesia, significant reduction in pain behavior vs CFA alone ([2]; 16 mg/kg PO, Day 7, 1 h post-dose): + (+ = statistically significant change in sensitivity compared to CFA alone, p < 0.05) |
| CCC(C)CN1CC2N(Cc3ccc(C(F)(F)F)cc3)CCC(=O)N2[C@@H](C)C1=O (some centres unmarked) [Compound 5a] | + (+ = Significant change in cytokine quantification, p < 0.05 by Student's T-test) | + (+ = Significant change in cytokine quantification, p < 0.05 by Student's T-test) | CCL3, CXCL1, IFN-γ, IL-1α, IL-1β, IL-10, IL-12p70, and IL-17A | study days 1 and 7 | statistically significant increase | ++ (“++” indicates a p value <0.01 in Tukey post test) | NS | NS | ++ (“++” indicates a p value <0.01 in Tukey post test) | + (“+” indicates a p value <0.05 in Tukey post test) | NS | ++ (“++” indicates a p value <0.01 in Tukey post test) | ++ (“++” indicates a p value <0.01 in Tukey post test) | + (“+” indicates a p value <0.05 in Tukey post test) | significantly reduced | significantly reduced | CCL3, significant change in cytokine expression in BALF supernatant [1, 4]: + (+ = Significant change in cytokine quantification, p < 0.05 by Student's T-test); CX3CL1, significant change in cytokine expression in BALF supernatant [1, 4]: + (+ = Significant change in cytokine quantification, p < 0.05 by Student's T-test); EGF, significant change in cytokine expression in BALF supernatant [1, 4]: + (+ = Significant change in cytokine quantification, p < 0.05 by Student's T-test); IL-1α, significant change in cytokine expression in BALF supernatant [1, 4]: + (+ = Significant change in cytokine quantification, p < 0.05 by Student's T-test); IL-1β, significant change in cytokine expression in BALF supernatant [1, 4]: + (+ = Significant change in cytokine quantification, p < 0.05 by Student's T-test); IL-10, significant change in cytokine expression in BALF supernatant [1, 4]: + (+ = Significant change in cytokine quantification, p < 0.05 by Student's T-test); IL-12p70, significant change in cytokine expression in BALF supernatant [1, 4]: + (+ = Significant change in cytokine quantification, p < 0.05 by Student's T-test); IL-17A, significant change in cytokine expression in BALF supernatant [1, 4]: + (+ = Significant change in cytokine quantification, p < 0.05 by Student's T-test); IFN-γ, significant change in cytokine expression in BALF supernatant [1, 5]: + (+ = Significant change in cytokine quantification, p < 0.05 by Student's T-test); IL-1α, significant change in cytokine expression in BALF supernatant [1, 5]: + (+ = Significant change in cytokine quantification, p < 0.05 by Student's T-test); IL-10, significant change in cytokine expression in BALF supernatant [1, 5]: + (+ = Significant change in cytokine quantification, p < 0.05 by Student's T-test); IL-17A, significant change in cytokine expression in BALF supernatant [1, 5]: + (+ = Significant change in cytokine quantification, p < 0.05 by Student's T-test); IL-1α, significant change in cytokine expression in BALF supernatant [1, 6]: + (+ = Significant change in cytokine quantification, p < 0.05 by Student's T-test); IL-10, significant change in cytokine expression in BALF supernatant [1, 6]: + (+ = Significant change in cytokine quantification, p < 0.05 by Student's T-test); Thermal Hyperalgesia, significant reduction in pain behavior vs CFA alone ([2]; 10 mg/kg PO, Day 1, 1 h post-dose): + (+ = statistically significant change in sensitivity compared to CFA alone, p < 0.05); Thermal Hyperalgesia, significant reduction in pain behavior vs CFA alone ([2]; 10 mg/kg PO, Day 3, 1 h post-dose): NS; Thermal Hyperalgesia, significant reduction in pain behavior vs CFA alone ([2]; 10 mg/kg PO, Day 7, 1 h post-dose): + (+ = statistically significant change in sensitivity compared to CFA alone, p < 0.05); Thermal Hyperalgesia, significant reduction in pain behavior vs CFA alone ([2]; 20 mg/kg PO, Day 1, 1 h post-dose): NS; Thermal Hyperalgesia, significant reduction in pain behavior vs CFA alone ([2]; 20 mg/kg PO, Day 3, 1 h post-dose): NS; Thermal Hyperalgesia, significant reduction in pain behavior vs CFA alone ([2]; 20 mg/kg PO, Day 7, 1 h post-dose): + (+ = statistically significant change in sensitivity compared to CFA alone, p < 0.05) |
